Reference: ChEMBL document CHEMBL5244257, “The role of imidazole and benzimidazole heterocycles in Chagas disease: A review” (Eur J Med Chem, 2020)
One block for each molecule: values may come before it.

Key:
[1] = tested on: Trypanosoma cruzi; assay: Inhibition of Trypanosoma cruzi assessed as inhibition of parasite growth at 100 uM relative to control; assay type: functional
[2] = tested on: Trypanosoma cruzi; assay: Antitrypanosomal activity against Trypanosoma cruzi Tulahuen strain trypomastigotes infected in human MRC5 cells measured after 7 days; assay type: functional, organism-based; conditions: MRC5, 168 h
[3] = biological target: T1, Cruzipain (Trypanosoma cruzi, UniProt P25779); assay: Inhibition of Trypanosoma cruzi Cruzain
T1 sequence (P25779 whole entry): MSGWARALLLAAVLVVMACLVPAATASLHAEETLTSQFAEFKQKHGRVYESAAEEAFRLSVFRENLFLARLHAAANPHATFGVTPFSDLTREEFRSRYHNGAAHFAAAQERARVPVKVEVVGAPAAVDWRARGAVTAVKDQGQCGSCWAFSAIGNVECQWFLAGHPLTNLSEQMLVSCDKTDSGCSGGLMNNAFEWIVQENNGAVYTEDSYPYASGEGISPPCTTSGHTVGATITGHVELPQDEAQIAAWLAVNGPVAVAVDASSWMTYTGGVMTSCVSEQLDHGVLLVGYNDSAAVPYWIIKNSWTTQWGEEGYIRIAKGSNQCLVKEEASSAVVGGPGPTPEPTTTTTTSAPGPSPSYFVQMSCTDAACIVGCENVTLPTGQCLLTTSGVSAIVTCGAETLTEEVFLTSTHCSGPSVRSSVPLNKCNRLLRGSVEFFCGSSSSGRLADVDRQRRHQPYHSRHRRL

[4] = tested on: Trypanosoma cruzi; assay: Antitrypanosomal activity against Trypanosoma cruzi epimastigotes; assay type: functional, organism-based
[5] = tested on: Trypanosoma cruzi; assay: Antitrypanosomal activity against of Trypanosoma cruzi amastigotes; assay type: functional, organism-based
[6] = Inhibition of Trypanosoma cruzi epimastigotes Fe-SOD by Bradford method
[7] = tested on: Trypanosoma cruzi; assay: Antitrypanosomal activity against Trypanosoma cruzi IRHOD/CO/2008/SN3 epimastigotes; assay type: functional, organism-based
[8] = tested on: Trypanosoma cruzi; assay: Trypanocidal activity against Trypanosoma cruzi trypomastigotes; assay type: functional, organism-based
[9] = tested on: Trypanosoma cruzi; assay: Antitrypanosomal activity against of Trypanosoma cruzi Tulahuen strain amastigotes infected in mouse 3T3 cells by alamar blue staining based analysis; assay type: functional, organism-based; conditions: NIH3T3
[10] = tested on: Trypanosoma cruzi; assay: Inhibition of Trypanosoma cruzi TIM at 100 uM relative to control
[11] = Inhibition of Trypanosoma cruzi TIM
[12] = tested on: Trypanosoma cruzi; assay: Antitrypanosomal activity against Trypanosoma cruzi Tulahuen 2 epimastigotes measured after 5 days; assay type: functional, organism-based; conditions: Tulahuen 2, 120 h
[13] = biological target: T1, Cruzipain; assay: Inhibition of Trypanosoma cruzi Tulahuen 2 Cruzain using Z-Phe-Arg-AMC as flurogenic substrate at 100 uM by spectrophotometry based analysis relative to control
[14] = tested on: Trypanosoma cruzi; assay: Antitrypanosomal activity against Trypanosoma cruzi Y strain trypomastigotes infected in Swiss albino mouse incubated for 24 hrs; assay type: functional, organism-based
[15] = tested on: Trypanosoma cruzi; assay: Antitrypanosomal activity against of Trypanosoma cruzi Y trypomastigotes measured after 48 hrs by giemsa staining based microscopic analysis; assay type: functional, organism-based
[16] = tested on: Trypanosoma cruzi; assay: Antitrypanosomal activity against bloodstream form of Trypanosoma cruzi Y […] measured after 24 hrs by giemsa staining based microscopic analysis; assay type: functional, organism-based
[17] = tested on: Trypanosoma cruzi; assay: Antiparasitic activity against Trypanosoma cruzi Tulahuen strain amastigotes; assay type: functional, organism-based
[18] = tested on: Trypanosoma cruzi; assay: Antitrypanosomal activity against Trypanosoma cruzi trypomastigotes; assay type: functional, organism-based
[19] = biological target: T1, Cruzipain; assay: Inhibition of Trypanosoma cruzi Cruzain using Z-Phe-Arg-AMC as flurogenic substrate
[20] = tested on: Trypanosoma cruzi; assay: Antitrypanosomal activity against Trypanosoma cruzi Tulahuen LacZ amastigotes infected in human HFF-1 cells incubated for 120 hrs; assay type: functional, organism-based; conditions: HFF-1, 120 h
[21] = tested on: Trypanosoma cruzi; assay: Antitrypanosomal activity against Trypanosoma cruzi Y strain amastigotes incubated for 24 hrs by microscopy analysis; assay type: functional, organism-based

SMILES: CCOC(=O)c1nc2ccc([N+](=O)[O-])cc2n1OC(=O)OC(C)(C)C
- inhibition at 100 µM [1]: 61%

SMILES: Cc1ccc(-c2c[nH]c(NC(=O)N3CCN(c4ccc(C(F)(F)F)cc4[N+](=O)[O-])CC3)n2)cc1
- IC50 [2]: 2200 nM

- IC50 [3]: 590 nM
SMILES: O=C(COc1ccc2ccccc2c1Br)NCCc1nc2cc(Cl)ccc2[nH]1

- IC50 [4]: 2000 nM
SMILES: Cc1cc(C)c(-n2cc[n+](-c3c(C)cc(C)cc3C)c2)c(C)c1

- IC50 [4]: 1020 nM
SMILES: c1ccc2c(c1)ccn1c[n+](C3CCCCC3)c(NC3CCCCC3)c21

- IC50 [5]: 960 nM
SMILES: CN(C)c1ccc(-c2nc(-c3ccccc3)c(-c3ccccc3)[nH]2)cc1

SMILES: Brc1ccc(-c2c[nH]c(-c3ccccn3)n2)cc1
- IC50 [2]: 1200 nM

- IC50 [4]: 33000 nM
SMILES: Cn1c([N+](=O)[O-])cnc1C1=NOC2CCCCC12 (stereo unspecified)

- IC50 [7]: 8.5 µM
SMILES: Oc1cccc2c(NCCc3c[nH]cn3)nnc(Cl)c12
- IC50 [6]: 27 µM

- IC50 [4]: 1140 nM
SMILES: c1ccc2c(c1)cnn1c[n+](C3CCCCC3)c(NC3CCCCC3)c21

SMILES: c1ccc(-c2nc(-c3cccc4ccccc34)c[nH]2)cc1
- IC50 [8]: 35.5 µM

- IC50 [9]: 20 nM
SMILES: c1ccc(-c2ccc(Cn3cncc3CNc3ccc(-c4nc5ccccc5s4)c(-c4ccccc4)c3)cc2)cc1

- inhibition [10]: 60%
SMILES: Cn1c(OC(N)=O)nc2cc(Oc3cccc4ccccc34)c(Cl)cc21

SMILES: CSc1nc2cc(C(=O)Nc3ncc([N+](=O)[O-])s3)c(Cl)cc2n1C
- IC50 [11]: 100 µM

- IC50 [12]: 13.3 µM
- IC50 [13]: 55 µM
SMILES: CCCCn1c(-c2ccc(Br)cc2)nc2ccccc21

SMILES: Cn1cnc([N+](=O)[O-])c1-n1cc(C2CC2)nn1
- IC50 [14]: 5.4 µM

SMILES: C=C(c1ccccc1OCc1cccc(Cl)c1)n1ccnc1 [CROCONAZOLE]
- IC50 [15]: 16 µM
- IC50 [16]: 24 µM

- IC50 [4]: 10700 nM
SMILES: COc1ccc(O)c(-c2nc(C)c(C)[nH]2)c1

- IC50 [3]: 1600 nM
SMILES: Cc1ccccc1OCC(=O)NCCc1nc2ccccc2[nH]1

- IC50 [17]: 0.8 nM
SMILES: O=C(N[C@@H](Cn1ccnc1)c1ccc(-c2ccc(F)cc2)cc1F)c1ccc(-c2nnc(-c3ccccc3)o2)cc1

- IC50 [18]: 23.9 µM
SMILES: Cn1c([N+](=O)[O-])cnc1-c1c(-c2ccccc2)nc(-c2ccc(Br)cc2)n1O

- IC50 [4]: 540 nM
SMILES: Oc1ccc(-n2c[n+](-c3ccc4ccccc4c3)c(Cc3ccccc3)c2-c2ccc(Cl)cc2)cc1

SMILES: CCOC(=O)Cc1[nH]c(-c2ccccc2)nc1-c1ccc(C)cc1
- IC50 [8]: 51.1 µM

- IC50 [4]: 1100 nM
SMILES: CC(C)c1cccc(C(C)C)c1-n1cc[n+](-c2c(C(C)C)cccc2C(C)C)c1

- IC50 [3]: 610 nM
SMILES: Cc1ccc2[nH]c(CCNC(=O)COc3ccc4ccccc4c3Br)nc2c1

SMILES: Sc1nc2cc(Cl)ccc2[nH]1
- IC50 [8]: 320 µM

- IC50 [19]: 1000 nM
- IC50 [20]: 1100 nM
SMILES: Cc1cccc(OCCNC(=O)n2ccnc2)c1

- IC50 [18]: 11 µM
- IC50 [21]: 900 nM
SMILES: O=C(N[C@@H](Cn1ccnc1)c1ccc(Cl)cc1Cl)c1ccc(-c2nnc(-c3ccccc3)o2)cc1

- IC50 [4]: 64000 nM
- IC50 [3]: 2000 nM
SMILES: Cc1ccc(OCCn2c(CCNC(=O)C3CCCCC3)nc3ccccc32)cc1

- IC50 [4]: 440 nM
SMILES: COc1ccc(-n2c[n+](-c3ccc(OC)cc3)c(Cc3ccccc3)c2-c2ccc(C)cc2)cc1
